We go through 23 molecules from ChEMBL document CHEMBL1144235, “Aminostyrylbenzofuran derivatives as potent inhibitors for Abeta fibril formation” (Bioorg Med Chem Lett, 2008).

One may read the IC50 as the point on the concentration scale where inhibition reaches its midpoint. Higher therefore signals weaker potency.

SMILES strings stand for the structures.

Amyloid-beta precursor protein, sequence (P05067 whole entry): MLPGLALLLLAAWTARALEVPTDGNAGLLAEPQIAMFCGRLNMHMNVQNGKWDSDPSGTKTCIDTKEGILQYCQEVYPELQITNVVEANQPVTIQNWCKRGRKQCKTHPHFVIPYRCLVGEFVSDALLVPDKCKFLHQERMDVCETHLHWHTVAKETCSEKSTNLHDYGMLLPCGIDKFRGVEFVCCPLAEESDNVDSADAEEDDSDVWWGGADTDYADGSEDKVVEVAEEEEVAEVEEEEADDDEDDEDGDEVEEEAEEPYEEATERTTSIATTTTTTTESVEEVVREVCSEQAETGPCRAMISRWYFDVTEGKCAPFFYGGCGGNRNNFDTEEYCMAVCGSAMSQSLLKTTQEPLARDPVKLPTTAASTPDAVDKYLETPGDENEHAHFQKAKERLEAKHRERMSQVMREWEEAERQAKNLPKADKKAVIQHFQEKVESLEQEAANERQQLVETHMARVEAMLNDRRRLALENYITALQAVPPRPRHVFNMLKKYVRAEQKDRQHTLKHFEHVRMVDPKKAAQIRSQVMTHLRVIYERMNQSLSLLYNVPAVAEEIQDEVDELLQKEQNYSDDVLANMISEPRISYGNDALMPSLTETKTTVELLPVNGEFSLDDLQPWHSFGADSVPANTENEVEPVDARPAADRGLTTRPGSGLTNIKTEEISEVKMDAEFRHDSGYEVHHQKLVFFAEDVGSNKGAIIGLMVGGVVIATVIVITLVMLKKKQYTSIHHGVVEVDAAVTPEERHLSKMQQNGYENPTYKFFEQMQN

The experiment addresses Amyloid-beta precursor protein (Homo sapiens, UniProt P05067). The experiment is described as follows: Inhibition of amyloid beta42 fibril formation by thioflavin T formation.
Molecule `CN(C)c1ccc(/C=C/c2cc3ccc(O)cc3o2)cc1` came in with an IC50 of 3620 nM.
The figure for `Cc1ccc2cc(/C=C/c3ccc(N(C)C)cc3)oc2c1` is 3440 nM; for `CN(C)c1ccc(/C=C/c2cc3cc(O)ccc3o2)cc1` it is 160 nM.
As for `CN(C)c1ccc(/C=C/c2cc3ccc(F)cc3o2)cc1`, the IC50 was found to be 2190 nM.
In the case of `COc1ccc2cc(/C=C/c3ccc(N(C)C)cc3)oc2c1` it was 70 nM.
Consider `CNc1ccc(/C=C/c2cc3cc(O)ccc3o2)cc1`, for which the IC50 was determined as 2160 nM.
In the case of `Nc1ccc(/C=C/c2cc3cc(O)ccc3o2)cc1` it was 2950 nM.
Consider `CN(C)c1ccc(/C=C/c2cc3ccc(Cl)cc3o2)cc1`, for which it took 3210 nM to reach half-maximal inhibition (IC50).
For `CN(C)c1ccc(/C=C/c2cc3ccc(Br)cc3o2)cc1`, inhibition was half-maximal at 1340 nM (IC50).
The figure for `Cc1ccc2oc(/C=C/c3ccc(N(C)C)cc3)cc2c1` is 130 nM; for `CN(C)c1ccc(/C=C/c2cc3cc(F)ccc3o2)cc1` it is 1980 nM; for `CN(C)c1ccc(/C=C/c2cc3cc(I)ccc3o2)cc1` it is 170 nM.
In the case of `CN(C)c1ccc(/C=C/c2cc3cc(Br)ccc3o2)cc1` it was 470 nM; in that of `COc1ccc2cc(/C=C/c3ccc(N)cc3)oc2c1`, 5440 nM.
`CNc1ccc(/C=C/c2cc3ccc(OC)cc3o2)cc1`: the IC50 worked out at 800 nM.
In turn, `COc1ccc2cc(/C=C/c3ccc(N(C)C)c(OC)c3)oc2c1` returned an IC50 of 530 nM.
The figure for `CN(C)c1ccc(/C=C/c2cc3cc(Cl)ccc3o2)cc1` is 200 nM; for `CNc1ccc(/C=C/c2cc3cc(OC)ccc3o2)cc1` it is 80 nM; for `COc1ccc2oc(/C=C/c3ccc(N(C)C)c(OC)c3)cc2c1` it is 160 nM.
In the case of `COc1ccc2oc(/C=C/c3ccc(N)cc3)cc2c1` it was 820 nM; in that of `CN(C)c1ccc(/C=C/c2cc3ccc(I)cc3o2)cc1`, 2800 nM.
The figure for `CN(C)c1ccc(/C=C/c2cc3ccccc3o2)cc1` is 2300 nM; for `COc1ccc2oc(/C=C/c3ccc(N(C)C)cc3)cc2c1` it is 810 nM.
